Assay results reported in patent publication US20190022072A1, “USAGE OF ACETAZOLAMIDE FOR TREATING ICH, PARTICULARLY HYPERGLYCEMIC ICH” (priority 2017, published 2019).

Legend:
experimental ICH = test: hemorrhagic areas of brains of normoglycemic and hyperglycemic rats with experimental ICH treated with AZA; format: in vivo, Wistar rats
Description: (§1) In the hyperglycemia experiment, six Wistar rats are applied. Regarding each rat, hyperglycemia is induced by a single intraperitoneal injection of a buffer solution of streptozotocin (STZ) in 31 mM citrate and 39 mM sodium phosphate at 70 mg/kg body weight after an overnight fast. On the other hand, control rats receive an intraperitoneal injection of buffer vehicle. On day 3 after STZ treatment, whole blood of the rats is obtained and the glucose levels thereof are measured. Blood glucose level of ≥250 mg/dL was chosen as hyperglycemia, whereas rats were used as normoglycemia, defined as a blood glucose level of <100 mg/dL.
(§2) Then in the intracerebral hemorrhage experiment, each hyperglycemic or normoglycemic rat is anesthetized with an intraperitoneal injection of 50 mg/kg pentobarbital. Next, a needle is introduced through a burr hole into the striatum, and the needle is then removed, with the burr hole sealed with bone wax and the wound sutured. After a period of time, AZA is administered orally or by gastric lavage at 5 mg/kg in normal saline. Blood of the rats are sampled on days 1, 4, and 7 post-induction of ICH for testing the glucose level thereof.
Experiment 2: comparing the hemorrhagic areas of normoglycemic and hyperglycemic rats treated with AZA.

AQP4 = test: expression of AQP4 in brain tissues of normoglycemic and hyperglycemic rats with experimental ICH, immunohistochemistry; format: in vivo, Wistar rats
Description: as §1, §2
Experiment 3: determining the expression of AQP4 in normoglycemic and hyperglycemic rats.
The differential expressions of AQP4 in normoglycemic and hyperglycemic rats are detected by AQP4 autoantibody by Immunohistochemistry. The effect of AZA influencing the expression of AQP4 are tested.

[1] = hyperglycemic rats treated with AZA, day 1
[2] = hyperglycemic rats treated with AZA, day 4
[3] = hyperglycemic rats treated with AZA, day 7
[4] = normoglycemic rats treated with AZA, day 1
[5] = normoglycemic rats treated with AZA, day 4
[6] = normoglycemic rats treated with AZA, day 7

CC(=O)Nc1nnc(S(N)(=O)=O)s1 [AZA, acetazolamide]
hemorrhagic areas, change in words (experimental ICH; both normoglycemic and hyperglycemic rats treated with AZA): significant decrease
hemorrhagic areas square measure of rats (%) (experimental ICH; [1]): 2.08 ± 0.02%
hemorrhagic areas square measure of rats (%) (experimental ICH; [2]): 0.91 ± 0.13%
hemorrhagic areas square measure of rats (%) (experimental ICH; [3]): 0.38 ± 0.10%
hemorrhagic areas square measure of rats (%) (experimental ICH; [4]): 6.00 ± 0.05%
hemorrhagic areas square measure of rats (%) (experimental ICH; [5]): 2.61 ± 0.17%
hemorrhagic areas square measure of rats (%) (experimental ICH; [6]): 1.37 ± 0.05%
AQP4 expression, change in words (AQP4; hyperglycemic rats administered with AZA (5 mg/kg)): significant decrease
the expression of AQP4 (AQP4; [1]): 15.67 ± 6.59
the expression of AQP4 (AQP4; [2]): 8.65 ± 4.53%
the expression of AQP4 (AQP4; [3]): 2.33 ± 3.83
the expression of AQP4 (AQP4; [4]): 12.19 ± 2.75
the expression of AQP4 (AQP4; [5]): 18.56 ± 5.67 ^
the expression of AQP4 (AQP4; [6]): 37.84 ± 6.53
